Patent USRE47689E1, “Compounds for treating spinal muscular atrophy” (PTC Therapeutics, Inc., priority 2011, dated 2019)

Key:
[1] = tested on: full length and Δ7 SMN2 mRNAs; test: Endogenous SMN2 mRNA end-point semi-quantitative RT-PCR splicing assay in cultured cells; format: cell-based, human; conditions: GM03813 Type 1 SMA patient fibroblasts, increasing concentrations, 24 hrs, agarose gel
Description: The endpoint reverse transcription-PCR splicing assay is used to visualize and quantify the levels of the full length and Δ7 SMN2 mRNAs in primary cells and cell lines containing the SMN2 gene treated with a test compound.
Protocol. GM03813 SMA patient cells (5,000 cells/well) are seeded in 200 μL of cell culture medium (DMEM plus 10% FBS) in 96-well flat-bottom plates and the plate is immediately swirled to ensure proper dispersal of cells, forming an even monolayer of cells. Cells are allowed to attach for at least 4-6 hrs. Test compounds are serially diluted 3.16-fold in 100% DMSO to generate a 7-point concentration curve. A solution of test compound (1 μL, 200× in DMSO) is added to each test well and 1 μL DMSO is added to each control well. The plate is incubated for 24 hrs in a cell culture incubator (37° C., 5% CO2, 100% relative humidity). The cells are then lysed in Cells-To-Ct lysis buffer and the lysate is stored at −80° C.
SMN FL and Δ7 mRNAs are identified using the following primers in Table 6. These primers hybridize to a nucleotide sequence in exon 6 (SMN Forward C, SEQ ID NO. 11) (nucleotide 43 to nucleotide 63) and exon 8 (SMN Reverse C, SEQ ID NO. 12) (nucleotide 51 to nucleotide 73) common to human SMN1 and SMN2 mRNAs. Since the SMA patient cells used in Example 4 contain only the SMN2 gene, RT-PCR can visualize and quantify only SMN2 full-length and SMN2 Δ7 mRNAs.
To synthesize cDNA, 5 μL of lysate, 4 μL of 5× iScript reaction mix, 1 μL of reverse transcriptase, and 10 μL of water are combined and incubated 5 min at 25° C. followed by 30 min at 42° C., followed by 5 min at 85° C. cDNA solution is stored at −20° C.
To perform endpoint PCR, 5 μL of cDNA, 0.2 μL of 100 μM forward primer, 0.2 μL of 100 μM reverse primer, and 22.5 μL of polymerase super mix are combined in a 96 well semiskirted PCR plate. PCR is carried out at the following temperatures for indicated time: Step 1: 94° C. (2 min), Step 2: 94° C. (30 sec), Step 3: 55° C. (30 sec), Step 4: 68° C. (1 min), then repeat Steps 2 to 4 for a total of 33 cycles, then hold at 4° C.
10 μL of each PCR sample is electrophoretically separated on a 2% agarose E-gel for 14 minutes stained with ds DNA staining reagents (e.g., ethidium bromide) and visualized using a gel imager.

[2] = tested on: Smn protein; test: Smn protein assay in tissues of adult C/C-allele SMA mice; format: in vivo, mouse; conditions: brain, spinal cord, muscle, 10 mg/kg orally twice a day for 10 days
Description: This Smn protein assay compares tissues from test compound treated mice with those from DMSO vehicle treated mice to determine the increase in levels of Smn protein produced from the human SMN2 gene.
Protocol. The tissue samples in Safe-Lock tubes are weighed and the volume of RIPA buffer containing the protease inhibitor cocktail is added based on the weight to volume ratios for each type of tissue: Brain (50 mg/mL), Muscle (50 mg/mL) and Spinal Cord (25 mg/mL).
Tissues are homogenized using the TissueLyzer by bead milling. 5 mm stainless steel beads are added to the sample and shaken vigorously for 5 minutes at 30 Hz in the TissueLyzer. The samples are then centrifuged for 20 minutes at 14,000×g in a microcentrifuge and the homogenates transferred to the PCR plate. The homogenates are diluted in RIPA buffer to approximately 1 mg/mL for HTRF and approximately 0.5 mg/mL for total protein measurement using the BCA protein assay. For the SMN HTRF assay, 35 μL of the tissue homogenate is transferred to a 384-well plate containing 5 μL of the antibody solution (1:100 dilution of each of the anti-SMNd2 and anti-SMN Kryptate in reconstitution buffer). To provide a control signal, three (3) wells in the plate contain only RIPA Lysis Buffer and, thus, serve as Blank control wells. The plate is centrifuged for 1 minute to bring the solution to the bottom of the wells and then incubated overnight at room temperature. Fluorescence for each well of the plate at 665 nm and 620 nm is measured on an EnVision multilabel plate reader (Perkin-Elmer). The total protein in the tissue homogenate is measured using the BCA assay according to the manufacturer's protocol.
The normalized fluorescence signal is calculated for each sample, Blank and vehicle control well by dividing the signal at 665 nm by the signal at 620 nm. Normalizing the signal accounts for possible fluorescence quenching due to the matrix effect of the tissue homogenate. The ΔF value (a measurement of Smn protein abundance) for each tissue sample well is calculated by subtracting the normalized average fluorescence for the Blank control wells from the normalized fluorescence for each tissue sample well and then dividing this difference by the normalized average fluorescence for the Blank control wells. The ΔF value for each tissue sample well is divided by the total protein quantity (determined using the BCA assay) for that tissue sample. The change in Smn protein abundance for each tissue sample relative to the vehicle control is calculated as the percent difference in the ΔF value of the tissue sample in the presence of the test compound and the averaged ΔF value of the vehicle control signal divided by the averaged ΔF value of the vehicle control signal. […]

[3] = tested on: SMA Δ7 homozygous knockout mice; test: Body weight of neonatal Δ7 SMA mice; format: in vivo, mouse; conditions: IP QD from PND 3, then orally BID until study end, compared to vehicle
Description: The change in body weight of neonatal SMA mice is used to determine whether treatment with a test compound improves body weight.
Protocol. SMA Δ7 homozygous knockout mice are dosed intraperitoneally (IP) with test compound or vehicle (100% DMSO) once per day (QD) from postnatal day (PND) 3 until the dose regimen is switched to an oral dose twice per day (BID) in 0.5% hydroxypropylmethyl cellulose (HPMC) with 0.1% Tween-80 at a dose 3.16-fold higher than the dose used for IP. Body weights of SMA Δ7 mice treated with test compound or vehicle and age matched heterozygous mice are recorded every day.

Row | SMILES | SMN2 FL mRNA [1] | SMN2 Δ7 mRNA [1] | Smn protein levels in target tissues compared with heterozygous mice [2] | total protein normalized Smn level relative to the vehicle group [2] | body weight [3]
1 | CC(C)NCCc1ccc2cc(-c3nc4c(Cl)cccc4s3)c(=O)oc2c1 [Cpd 35, 3-(4-chloro-1,3-benzothiazol-2-yl)-7-[2-(propan-2-ylamino)ethyl]-2H-chromen-2-one] | progressively more SMN2 FL mRNA | less SMN2 Δ7 mRNA | above those observed in the corresponding tissues of the heterozygous mice | increased | improved compared to vehicle treated mice
2 | CCN1CCN(c2ccc3cc(-c4cn5cc(C)nc(C)c5n4)c(=O)oc3c2)C[C@@H]1C [Cpd 626, 3-(6,8-dimethylimidazo[1,2-a]pyrazin-2-yl)-7-[(3S)-4-ethyl-3-methylpiperazin-1-yl]-2H-chromen-2-one] | progressively more SMN2 FL mRNA | less SMN2 Δ7 mRNA | above those observed in the corresponding tissues of the heterozygous mice | increased | improved compared to vehicle treated mice
